In US4826962A, “Tetrachlororaffinose and its use in the preparation of sucralose” (Tate & Lyle Public Limited Company, priority 1985, dated 1989):
In brackets after ≈: the same amount, converted by molar mass. Values belong to the compound of their own block, whether it stands above or below them.

Experiments:
[1] = Solubility in solvents pre-saturated with aqueous buffer at 55° C.; type: physicochemical
[2] = system: α-Galactosidase in the form of pelletized cells of M. vinacea var raffinoseutilizer (ATCC 20034); assay: Hydrolysis of TCR to sucralose in organic media; type: biochemical; settings: for Conversion of TCR into sucralose: 24 hours, 20 mM TCR, 55° C.
Description: The TCR of Example 1 (23 mg) was placed in a 5 ml screw-top vial and 2 ml of an organic solvent which had been pre-saturated with aqueous buffer (sodium acetate, 50 mM, pH 5.0) was added to give a 20 mM (1.15% w/v) solution. α-Galactosidase in the form of pelletized cells of M. vinacea var raffinoseutilizer (ATCC 20034) was added (100 mg) to each vial and the reactions were initiated by adding 1% v/v aqueous buffer, vortexing for 30 seconds, and placing the vial in a water-bath shaker at 55° C. and 100 rpm. Periodically, aliquots were removed and 25 μl were injected into an Hplc system fitted with a reverse phase (Waters Dextropak C18) column, using 20% aqueous acetonitrile as eluant, to measure the sucralose produced and the residual TCR. In the figure the progress of the hydrolysis of TCR into sucralose with time is plotted for aqueous buffer (curve 1) and for three solvents, methyl isobutyl ketone (2), ethyl acetate (3) and n-butanol (4). The hydrolysis reaction in methyl isobutyl ketone and in aqueous buffer were similar. Lower rates and conversions were obtained in ethyl acetate and n-butanol, respectively. In all cases, greater than 50% conversion in 24 hours was observed, with 70% conversions in aqueous buffer and methyl isobutyl ketone.
The reason that the time-course for TCR hydrolysis in ethyl acetate was lower than that in aqueous buffer at 20 mM TCR was due to the higher Km of TCR in ethyl acetate and not due to a lower catalytic activity. When 50 mM TCR was used, the rates and conversions of TCR hydrolysis in ethyl acetate were similar to those in aqueous buffer.

[3] = system: Melibiase in the form of pelletised cells of Mortierella vinacea var raffinoseutilizer (ATCC 20034); assay: Hydrolysis of TCR to sucralose by melibiase pellets in aqueous buffer; type: biochemical; settings: for TCR hydrolysed: 55° C., pH 5.0, 1% (w/v) TCR
Description: The tetrachlorogalactoraffinose of Example 1 (20 mg) was placed in a screw-top bottle together with 0.1M-citrate-phosphate buffer (pH 5.0) (2 ml) to give a 1% (w/v) solution. This level of water was maintained during the following incubation period by addition of more water when required.
Melibiase in the form of pelletised cells of Mortierella vinacea var raffinoseutilizer (ATCC 20034) (supplied by Hokkaido Sugar Co, Japan) was added (10 mg) and the mixture was incubated at 55° C. for up to 100 hours. The degree of hydrolysis was followed periodically by t.l.c. analysis of withdrawn 250 μl aliquots eluted with ethyl acetate:ethanol:water (45:5:1) or by hplc on a Waters Dextropak Cl8 reverse phase column eluted by acetonitrile 20% (v/v) and products measured using a refractive index detector. The result is plotted in FIG. 1. It was found, for example, that about 53% had been hydrolysed after 48 hours and about 70% after 90 hours. The products were separated by chromatography and, in addition to sucralose, the presence of 6-chlorogalactose and TCR was detected. TCR can be used at up to 15% (w/v) in this system.

[4] = system: α-galactosidase of Saccharomyces uvarum; assay: TCR hydrolysis by cell debris of α-galactosidase organisms; type: biochemical; settings: Saccharomyces uvarum ATCC 42367, for 70% conversion
Description: (§1) Organisms reported to have an α-galactosidase activity were obtained from the ATCC. They were grown in 500 ml shake flasks containing 100 ml of a mineral salts medium (Jayasuria, 1955 Journal of General Microbiology 12 419-428) containing 1 g/l yeast extract plus 5 g/l raffinose at 30° C. Cells were collected by centrifugation (5000 rev/min for 10 min) in the late exponential phase of growth, resuspended in 5 times their volume of citrate-phosphate buffer pH 5.0, and maintained at 0° C. in an ice bath and were disrupted by 3×20 second bursts in a MSE sonicator (Dawe Soniprobe Type 1130A) at maximum output. The resulting suspension was centrifuged (17,000 rev/min) for 30 minutes and both debris and supernatant assayed for α-galactosidase activity in units per g. dry weight of cell debris using p-nitrophenyl α-D-galactopyranoside (Sigma). Virtually no enzyme activity was detected in the supernatant. Cultures which were positive were then tested for TCR hydrolysis as in Example 4 and the results given in mg sucralose per g dry weight of cell debris per hour (for 70% conversion).

[5] = system: α-galactosidase of Mortierella vinacea; assay: as above; type: biochemical
Description: as §1

[6] = system: α-galactosidase of Talaromyces thermophilus; assay: as above; type: biochemical; settings: Talaromyces thermophilus ATCC 16461, for 70% conversion
Description: as §1

[7] = system: α-galactosidase of Aspergillus niger; assay: as above; type: biochemical; settings: Aspergillus niger ATCC 36220, for 70% conversion
Description: as §1

[8] = system: α-galactosidase of Aspergillus awamori; assay: as above; type: biochemical; settings: Aspergillus awamori ATCC 44733, for 70% conversion
Description: as §1

[9] = system: α-galactosidase of Circinella muscae; assay: as above; type: biochemical
Description: as §1

[10] = system: α-galactosidase of Absidia griseola; assay: as above; type: biochemical
Description: as §1

[11] = sweeter than sucrose; cited from earlier work
[12] = cited from earlier work
[13] = Stability of sucralose under the enzyme treatment conditions; type: physicochemical; settings: about 55° C., pH 5.0
Description: In both aqueous and organic systems, the treatment should naturally be at the optimum temperature and pH for the enzyme which, for the M. vinacea melibiase is about 55° C. and pH 4.5-5.5. In water-saturated organic solvents this refers to the pH of the aqueous buffer. At this temperature and at a pH of 5.0, we find that the sucralose produced is not degraded.

[14] = organic solvent or mixture, ethyl acetate pre-saturated with aqueous buffer, 55° C.
[15] = organic solvent or mixture, methyl isobutyl ketone pre-saturated with aqueous buffer, 55° C.
[16] = organic solvent or mixture, n-butanol pre-saturated with aqueous buffer, 55° C.
[17] = organic solvent or mixture, n-octanol pre-saturated with aqueous buffer, 55° C.
[18] = organic solvent or mixture, nitrobenzene pre-saturated with aqueous buffer, 55° C.

SMILES: OC1C(CCl)OC(OCC2OC(OC3(CCl)OC(CCl)C(O)C3O)C(O)C(O)C2Cl)C(O)C1O (centres unmarked) [TCR, 4,1',6',6"-tetrachloro-4,1',6',6"-tetradeoxygalactoraffinose]
solubility ([1]; aqueous buffer): 150 mg/mL (≈ 259 mM) | solubility [1, 14]: > 500 mg/mL | solubility ([1]; organic solvent or mixture, hydrophilic water-immiscible solvents (ethyl acetate, n-butanol, methyl isobutyl ketone)): > 500 mg/mL | solubility ([1]; organic solvent or mixture, hydrophobic water-immiscible solvents (e.g. n-octanol, nitrobenzene, butyronitrile)): < 50 mg/mL | solubility [1, 15]: > 500 mg/mL | solubility [1, 16]: > 500 mg/mL | solubility [1, 17]: 50 mg/mL (≈ 86.5 mM) | solubility [1, 18]: < 20 mg/mL | solubility ([1]; water (aqueous buffer), 55° C.): 150 mg/mL (≈ 259 mM) | Conversion of TCR into sucralose ([2]; aqueous buffer): 70% | Conversion of TCR into sucralose ([2]; ethyl acetate): greater than 50% | Conversion of TCR into sucralose ([2]; methyl isobutyl ketone): 70% | Conversion of TCR into sucralose ([2]; n-butanol): greater than 50% | TCR hydrolysis in highly water-miscible solvents ([2]; dioxane, acetone, methanol, THF, even with 30% v/v aqueous buffer): unable to support hydrolysis | Kcat ([2]; ethyl acetate): 56.3 mg sucralose/g pellets/h | Km ([2]; ethyl acetate): 16.4 mM | Rate of reaction on TCR relative to raffinose ([3]; M. vinacea melibiase (Hokkaido Sugar Co.)): only a few percent of the rate on raffinose itself | TCR hydrolysed ([3]; after 48 hours): about 53% | TCR hydrolysed ([3]; after 90 hours): about 70% | Kcat ([3]; aqueous solution): 52.5 mg per g enzyme per hour | Km ([3]; aqueous solution, read-out: Michaelis constant (Km)): 5.8 mM | TCR Hydrolysis [4]: 0 mg sucralose per g dry weight | TCR Hydrolysis ([5]; Mortierella vinacea ATCC 20034, for 70% conversion): 1.09 mg sucralose per g dry weight | TCR Hydrolysis ([5]; Mortierella vinacea ATCC 34195, for 70% conversion): 1.33 mg sucralose per g dry weight | TCR Hydrolysis ([5]; Mortierella vinacea ATCC 42425, for 70% conversion): 1.06 mg sucralose per g dry weight | TCR Hydrolysis ([5]; Mortierella vinacea Hokkaido (pellets), for 70% conversion): 4.3 mg sucralose per g dry weight | TCR Hydrolysis [6]: 0 mg sucralose per g dry weight | TCR Hydrolysis [7]: 0.49 mg sucralose per g dry weight | TCR Hydrolysis [8]: 0 mg sucralose per g dry weight | TCR Hydrolysis ([9]; Circinella muscae ATCC 16008, for 70% conversion): 1.12 mg sucralose per g dry weight | TCR Hydrolysis ([9]; Circinella muscae ATCC 20394, for 70% conversion): < 0.2 mg sucralose per g dry weight | TCR Hydrolysis ([9]; Circinella muscae ATCC 22337, for 70% conversion): 0 mg sucralose per g dry weight | TCR Hydrolysis ([10]; Absidia griseola ATCC 20430, for 70% conversion): 0 mg sucralose per g dry weight | TCR Hydrolysis ([10]; Absidia griseola ATCC 20431, for 70% conversion): < 0.2 mg sucralose per g dry weight | TCR Hydrolysis ([10]; Absidia griseola ATCC 22618, for 70% conversion): 0 mg sucralose per g dry weight

solubility [1, 14]: 57 mg/mL (≈ 143 mM) | solubility [1, 15]: 60 mg/mL (≈ 151 mM) | solubility [1, 16]: > 500 mg/mL | solubility [1, 17]: < 10 mg/mL | solubility [1, 18]: < 10 mg/mL | solubility ([1]; water (aqueous buffer), 55° C.): 300 mg/mL (≈ 754 mM) | Degradation of sucralose produced [13]: not degraded
SMILES: OC[C@H]1O[C@H](O[C@]2(CCl)O[C@H](CCl)[C@@H](O)[C@@H]2O)[C@H](O)[C@@H](O)[C@H]1Cl [sucralose, 4,1',6'-trichloro-4,1',6'-trideoxygalactosucrose]
Sweetness relative to sucrose [11]: about 600 X | Degradation in vivo [12]: not degraded in vivo
